{"source": "patent US11464750B2", "about": "“Anticancer agent and use thereof” (priority 2017, dated 2022)", "format_in_all_cases": "cell-based, human", "key": {"[1]": {"system": "phosphorylated H2AX (γH2AX)", "assay": "Western blotting, phosphorylated H2AX, Panc-1 cells", "conditions": "3 μM, 12, 24, 48 hours", "experimental": "(§1) Specifically, JeKo-1 cells were cultured for 0 (control), 12, 24 and 48 hours in the presence of 0.5 μM of 3EZ,20Ac-ingenol. In addition, Panc-1 cells were cultured for 0 (control), 12, 24, and 48 hours in the presence of 3 μM of 3EZ,20Ac-ingenol.\n(§2) Subsequently, phosphorylation of H2AX in the respective cells was detected using an anti-phosphorylated-H2AX antibody (Millipore). In addition, p21 protein was detected using an anti-p21 antibody (Cell Signaling Technology). Furthermore, as a loading control, actin protein was detected using an anti-actin antibody (Sigma)."}, "TKG0377 cells": {"system": "TKG0377 cells", "assay": "Cell Death Detection ELISA, TKG0377", "conditions": "0.5 μM, 72 hours", "experimental": "(§3) The induction of apoptosis by 3EZ,20Ac-ingenol treatment was examined by detecting histone-binding DNA fragmentation in the cytoplasm using a Cell Death Detection ELISA kit (Roche Applied Science).\n(§4) Specifically, BALL-1 cells, TKG0210 cells, and TKG0377 cells were inserted into tubes at 5×10^4 cells/well/200 μL, and incubated for 6, 12, 24, 48, and 72 hours in the presence of 3EZ,20Ac-ingenol at a final concentration of 0.5 μM. Subsequently, the respective cells were lysed in a lysis buffer. Subsequently, the supernatant of cell debris of the respective cells was collected and transferred to an ELISA plate, and an absorbance at a wavelength of 405 nm was measured to measure the induction of apoptosis."}, "p21 protein": {"system": "p21 protein", "assay": "Western blotting, p21 protein, Panc-1 cells", "conditions": "3 μM", "experimental": "as §1, §2"}, "BALL-1 cells [2]": {"system": "BALL-1 cells", "assay": "Cell Death Detection ELISA (histone-binding DNA fragmentation), BALL-1", "conditions": "0.5 μM, 72 hours", "experimental": "as §3, §4"}, "Akt protein": {"system": "Akt protein", "assay": "Western blotting, total amount of Akt, Panc-1 cells", "conditions": "3 μM", "experimental": "Specifically, first, JeKo-1 cells were cultured for 0 (control), 12, 24, and 48 hours in the presence of 0.5 μM of 3EZ,20Ac-ingenol. In addition, Panc-1 cells were cultured for 0 (control), 12, 24, and 48 hours in the presence of 3 μM of 3EZ,20Ac-ingenol.\nSubsequently, by Western blotting using an anti-Akt antibody (Cell Signaling Technology) and an anti-p-Akt (Ser^473) antibody (Cell Signaling Technology), abundances of total amounts of Akt protein and p-Akt in the entire cell fractions, nuclear fractions, and cytoplasm fractions of the respective cells were analyzed. Furthermore, as a loading control, actin protein was detected using an anti-actin antibody (Sigma)."}, "BALL-1 cells [3]": {"system": "BALL-1 cells", "assay": "Cell cycle analysis by flow cytometry", "conditions": "0.5 μM", "experimental": "Specifically, BALL-1 cells were treated with 3EZ,20Ac-ingenol at a final concentration of 0.5 μM for 6, 12, 24, and 48 hours, and then a phase of a cell cycle was analyzed using flow cytometry. In addition, cells that were not treated with 3EZ,20Ac-ingenol were used as controls."}}, "data": [{"smiles": "CCCCC/C=C\\C=C\\C(=O)O[C@H]1C(C)=C[C@]23C(=O)[C@@H](C=C(COC(C)=O)[C@@H](O)[C@]12O)[C@H]1[C@@H](C[C@H]3C)C1(C)C", "note": "[3EZ,20Ac-ingenol, 3-O-(2′E,4′Z-decadienoyl)-20-O-acetylingenol]", "values": [{"measurement": "phosphorylation of H2AX", "setting": "[1]", "result": "phosphorylation of H2AX was not detected"}, {"measurement": "amount of fragmented DNA (apoptosis)", "setting": "TKG0377 cells", "result": "almost no fragmented DNA was detected"}, {"measurement": "expression of p21 protein", "setting": "p21 protein; 12 hours after treatment", "result": "induction of a high expression level of p21 protein was observed"}, {"measurement": "expression of p21 protein", "setting": "p21 protein; 48 hours after treatment", "result": "a rapid decrease in p21 protein was recognized"}, {"measurement": "amount of fragmented DNA (apoptosis)", "setting": "BALL-1 cells [2]", "result": "noticeably increased the amount of fragmented DNA"}, {"measurement": "abundance of total amount of Akt", "setting": "Akt protein; entire cell fraction, 12 hours and 24 hours", "result": "a temporary increase in abundances of both p-Akt and total amount of Akt was recognized"}, {"measurement": "abundance of total amount of Akt", "setting": "Akt protein; entire cell fraction, 48 hours", "result": "a decrease was observed again"}, {"measurement": "abundance of total amount of Akt", "setting": "Akt protein; nuclear fraction and cytoplasm fraction, 12 to 24 hours", "result": "an increase in abundance of both p-Akt and total amount of Akt was recognized"}, {"measurement": "abundance of total amount of Akt", "setting": "Akt protein; nuclear fraction and cytoplasm fraction, 48 hours", "result": "a decrease was observed 48 hours after the treatment"}, {"measurement": "proportion of S-phase cells", "setting": "BALL-1 cells [3]; after 6 hours", "result": 68, "unit": "%"}, {"measurement": "proportion of G2/M-phase cells", "setting": "BALL-1 cells [3]; after 12 hours and 24 hours", "result": "about 3%"}, {"measurement": "proportion of S-phase cells", "setting": "BALL-1 cells [3]; after 12 hours and 24 hours", "result": 75, "unit": "%"}, {"measurement": "proportion of G1-phase cells", "setting": "BALL-1 cells [3]; after 24 hours", "result": "about 19%"}]}]}
